Measured values from ChEMBL document CHEMBL5223129, “Antioxidant, Anti-inflammatory, and Immunomodulatory Roles of Nonvitamin Antioxidants in Anti-SARS-CoV-2 Therapy” (J Med Chem, 2022).
pIC50: −log10 of the molar value.

Tested on: SARS-CoV-2
Experiment: Antiviral activity against pseudovirus SARS-CoV-2 spike protein infected human HEK293T cells overexpressing ACE2 assessed as inhibition of viral infection incubated for 96 hrs by GFP fluorescence based method
Assay type: functional, organism-based
Conditions: Severe acute respiratory syndrome coronavirus 2, HEK-293T

With `CC1=C[C@H](O)CC(C)(C)[C@H]1/C=C/C(C)=C/C=C/C(C)=C/C=C/C=C(C)/C=C/C=C(\CO)C(=O)CC1=C(C)C[C@@H](O)CC1(C)C` the pIC50 was 4.06.
